Assays:
[1] = tested on: TA-Luc (control construct); assay: TA-Luc control construct transient transfection luciferase reporter assay in LAD 2 cells; assay type: cell-based, human; conditions: A23187 500 ng/ml alone
Source text: (§1) A calcium ionophore alone was also able to stimulate TSLP promoter activity.

[2] = tested on: TSLP promoter (TSLP-Luc construct); assay: TSLP-Luc transient transfection luciferase reporter assay in LAD 2 cells; assay type: cell-based, human; conditions: A23187 500 ng/ml alone
Source text: as §1

CNc1ccc2oc(C[C@H]3O[C@@]4(CC[C@H]3C)O[C@H]([C@H](C)C(=O)c3ccc[nH]3)[C@H](C)C[C@H]4C)nc2c1C(=O)O [A23187]
F/R luciferase activity, control construct TA-Luc [1]: 29.6 units of F/R luciferase activity
F/R luciferase activity, TSLP-Luc construct [2]: 171.0 units of F/R luciferase activity
